The results in this text go back to patent publication US20130025073A1, “DETERGENT COMPOSITIONS” (priority 2011, published 2013).

Molecules are shown by their SMILES.

For the data set, the target named is T1, Protease (Purafect Prime®) (Bacillus amyloliquefaciens, UniProt P00782, Y324L).
T1 construct: purchased Genencor International, Palo Alto Purafect Prime®
Kind of data set: Stability of Protease in amine neutralized-anionic surfactant-containing detergent (Example 10) after incubation. It is filed as physicochemical. As to conditions: Detergent example 10, pH 8.2, 3 weeks and 6 weeks 30° C., versus a nil PBA reference. The method, then: Test of stability of Protease in an Amine Neutralized-Anionic Surfactant-Containing Detergent after Incubation in Detergent, Example 10, at pH 8.2
A detergent composition, example 10, nil enzyme, nil calcium chloride dihydrate and nil phenylboronic acid (PBA), balanced to pH 8.2 using monoethanolamine, was prepared.
The protease, that sold under the trade name of Purafect Prime®, by Genencor International, Palo Alto (38.7 mg active Protease protein in 100 g detergent), was added to the above detergent. Each detergent sample was determined for the initial residual enzyme activity before incubation (Initial reference samples).
The residual enzyme activity for each sample was determined after incubation at 30° C. for 3 weeks and 6 weeks and compared to their reference sample. The residual activity was determined using the standard enzyme activity assays for the relevant enzyme.
Detergent formulations A-D, 5 g pH 8.2, were placed in duplicate into a 7 ml glass vial with an air tight lid. The residual enzyme activity was determined for the initial samples, in duplicate, before incubation.
The samples were placed into an incubator for 3 weeks and 6 weeks at 30° C. Immediately after incubation, the samples were analysed for both residual Protease. In this test the residual activity of 100% equals no loss of Protease activity compared to initial residual enzyme activity before incubation.

T1 sequence (P00782 108-382 Y324L): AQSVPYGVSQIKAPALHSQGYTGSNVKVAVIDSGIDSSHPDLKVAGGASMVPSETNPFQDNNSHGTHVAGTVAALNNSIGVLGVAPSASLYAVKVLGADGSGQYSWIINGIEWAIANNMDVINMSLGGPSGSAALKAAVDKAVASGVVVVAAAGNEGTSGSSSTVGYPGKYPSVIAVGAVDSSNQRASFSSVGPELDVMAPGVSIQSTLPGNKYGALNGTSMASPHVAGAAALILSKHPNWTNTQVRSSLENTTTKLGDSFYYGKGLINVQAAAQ

For `OB(O)c1ccccc1` [PBA, phenylboronic acid], the “Effect of PBA addition on stability of the Protease” value is reported as “significantly improves stability of the Protease”.
